Data: paper PMC11414077, “Novel thiazole-based cyanoacrylamide derivatives: DNA cleavage, DNA/BSA binding properties and their anticancer behaviour against colon and breast cancer cells” (BMC Chemistry, 2024)

Key:
CT-DNA = CT-DNA UV-Visible absorption spectrophotometric titration; format: binding, calf; conditions: compound 25 μM, CT-DNA 0–60 μM; peak 423 nm (3b), 359 nm (3c)
Protocol: CT-DNA stock solution was prepared by dissolving CT-DNA in Tris/NaCl buffer (pH 7.1). Then, it was stored at 4°C and was manipulated within 4 days of preparation. The concentration was estimated by applying the equation C=A260nm/ε×b where C is the concentration of DNA solution, A is the absorbance at wavelength 260 nm, b is the path length and ε is the molar extinction coefficient of DNA that equals 6600 M^−1 cm^−1. The purity also was calculated using the absorbance ratio at wavelength 260 and 280 respectively, which was 1.8 indicating free DNA from protein contamination. Stock solutions of compounds 3b and 3c were prepared by dissolving in DMSO.
The interaction between the selected compounds (3b and 3c) and CT-DNA was assessed through the spectrophotometric titration method. In brief, a fixed concentration of compounds (25 μM) was mixed with an accumulative addition of CT-DNA (0–60 μM) at room temperature with a constant DMSO percentage of 5%. After 5 min from each addition, the UV–Vis absorption spectrum (250–650 nm) was recorded. The hyper/hypochromic percentage change at the characteristic peak of 3b and 3c was assessed using the formula: H%=Afree-Abound/Abound×100 . […] Standard Gibbs free energy (ΔG°) was calculated using the equation ΔG° = − RTlnKb (where T is the temperature, 298 K; R is the universal gas constant, 8.314 J K^−1 mol^−1).

CT-DNA-EtBr = test: Ethidium bromide quenching (displacement) assay; format: binding, calf; conditions: for kq / KSV: CT-DNA-EtBr; for kq: τ0 10^−8 s; for reduction in fluorescence intensity: EtBr 20 µM, CT-DNA 100 µM, 3b 0–160 µM, 3c 0–80 µM; for KSV: Stern–Volmer, room temperature
Protocol: EtBr is a conventional intercalator whose fluorescence intensity intensifies in response to CT-DNA interaction. Solution of CT-DNA-EtBr with final concentrations of EtBr (20 µM) and CT-DNA (100 µM) in Tris–HCl buffer solution (pH = 7.1) was prepared, then compounds were solubilized in DMSO, added to the prepared solution to attain a range of concentration (0–160 µM) and (0–80 µM) for 3b and 3c, respectively. Then, the mixtures were incubated 3 min after each addition and the emission spectra (540–710 nm) were recorded using an excitation wavelength of 520 nm.
The interaction mode between compound and CT-DNA can be discriminated through fluorescence spectroscopy with the EtBr–CT-DNA system. EtBr is a classic indicator of intercalation where an intense fluorescence signal is emitted from the EtBr-CT-DNA system through intercalation of EtBr between adjacent DNA base pairs with no obvious signal for unaccompanied EtBr. […] The Stern–Volmer equation was used for the study of the effect of quenchers on the CT-DNA-EtBr system. F0/F= 1+KsvQ= 1+kqτ0[Q] where F0 and F are fluorescence intensities in the absence and presence of the compound used for quenching, respectively; KSV is a linear Stern–Volmer quenching constant; [Q] is the concentration of the quenching compound and τ0 is the fluorescence lifetime of the fluorophore (10^−8 s) in absence of the compound responsible for quenching. KSV for 3b and 3c is computed from the linear regression plot of F0/F against [Q]. Also, the binding constant (Kb) and the number of binding sites (n) were determined by the Scatchard method.
log((F0-F)/F)=logKb+nlog[Q]
Kb has been assigned as the intercept and n as the slope in the linear plotting of log((F0–F)/F) versus log[Q]. The detailed results for 3b and 3c were computed and depicted in Table 1.

BSA [1] = molecular target: T1, BSA (Bos taurus, UniProt P02769); test: BSA UV-Visible absorption spectrophotometric titration; format: binding, bovine; conditions: at 277 nm, BSA 15 μM, compound 0–40 μM
T1 construct: purchased BioBasic Inc. (Canada)
T1 sequence (P02769 25-607): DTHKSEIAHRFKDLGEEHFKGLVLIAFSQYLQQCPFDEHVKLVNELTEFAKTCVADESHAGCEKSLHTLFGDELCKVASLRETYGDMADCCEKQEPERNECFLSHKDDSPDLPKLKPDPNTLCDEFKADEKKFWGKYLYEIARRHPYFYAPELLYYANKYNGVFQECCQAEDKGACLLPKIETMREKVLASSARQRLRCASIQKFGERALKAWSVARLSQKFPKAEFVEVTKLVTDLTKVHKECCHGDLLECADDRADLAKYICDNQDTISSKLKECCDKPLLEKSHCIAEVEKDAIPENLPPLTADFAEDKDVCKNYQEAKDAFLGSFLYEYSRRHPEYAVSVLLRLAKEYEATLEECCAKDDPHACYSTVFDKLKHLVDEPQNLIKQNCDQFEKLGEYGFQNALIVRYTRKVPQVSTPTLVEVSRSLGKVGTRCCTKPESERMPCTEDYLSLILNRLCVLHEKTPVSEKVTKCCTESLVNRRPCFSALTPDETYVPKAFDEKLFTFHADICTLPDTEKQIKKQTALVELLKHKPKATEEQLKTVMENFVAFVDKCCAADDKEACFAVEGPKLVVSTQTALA
Protocol: BSA was dissolved in Tris/NaCl buffer (pH 7.1) to prepare the BSA stock solution, which was then kept at 4°C and utilized within a week after preparation. The concentration was evaluated by applying the equation C=A280nm/ε×b where C is the concentration of protein solution, A is the absorbance at wavelength 280 nm, b is the path length and ε is molar extinction coefficient of protein that equals 44,300 M^−1 cm^−1.
The interaction was evaluated through dilution of BSA to 15 μM in Tris/NaCl (pH 7.1) during the spectrophotometric titration. After that, the compounds dissolved in DMSO were added with a range of increasing concentration (0–40 μM), where the final DMSO percentage is 5%. UV–Vis absorption spectrum measurement for each concentration was assessed by Shimadzu UV-3101 PC NIR spectrophotometer after 3 min of each addition. The Kb for compounds 3b and 3c was calculated using equation [54]: 1/Aobs-A0=1/Ac-A0+1/KbAc-A0[compound] where A0, Aobs and Ac are absorbance of solution in the absence, various concentrations, and saturation of the compound at the characteristic peak, respectively. Where Kb is estimated from the plot of 1/Aobs-A0 versus 1/[Drug] .

BSA [2] = molecular target: T1, BSA; test: Tryptophan quenching assay with BSA; format: binding, bovine; conditions: for kq / n (binding site numbers) / Kb: BSA; for n (binding site numbers) / Kb: Scatchard method; for Kb / KSV: room temperature; for KSV: Stern–Volmer, BSA 15 µM, λex 289 nm
Protocol: BSA (15 µM) solution was prepared in Tris/HCl buffer solution (pH = 7.1) and mixed with serial concentrations of compounds 3b and 3c (0–40 µM), achieving 5% final concentration of DMSO. Following 3 min incubation after each addition, fluorescence quenching spectra were recorded from 300 to 450 nm using a spectrofluorometer with an excitation wavelength of 289 nm.
Fluorescence investigations could be used to conduct a specified analysis of whether synthetic molecules bind to biomolecules as BSA. It is widely perceived that predominantly tryptophan (Trp) is responsible for the inherited fluorescence among the other two amino acids [tyrosine (Tyr) and phenylalanine (Phe)] in the BSA [88]. The tryptophan emission spectrum is frequently altered because of protein conformational variation, subunit interactions, substrate binding, or denaturation. Reduced fluorescence emission intensity is observed for 3b and 3c, which may be due to disrupted BSA structure altering the tryptophan microenvironments. Moreover, the internalization of fluorophore residues into the protein's hydrophobic core is due to protein folding or related to the hydrophobic amino acid residues around Trp, such as Leu, Tyr, and phe. […] Also, a linear plot of F0/F against the concentration of 3b and 3c was used for computing the values of KSV (9.0 × 10^4 and 9.9 × 10^4 M^−1) and kq (9.0 × 10^12 and 9.9 × 10^12 M^−1 s^−1) for the titled compounds (3b and 3c, respectively). […] The negative values of ΔG also supported the UV–Vis results of free energy changes and implied the spontaneity of 3b/3c–BSA binding, where the interaction parameters were illustrated in Table 2.

HCT116 cells = test: MTT cell viability assay, HCT116; format: cell-based; conditions: Homo sapiens, HCT-116; HCT116, absence of illumination (dark)
Protocol: (§1) The cytotoxicity of 3b and 3c against MDA-MB-231 and HCT116 cell lines, with and without illumination, was assessed using the MTT test. Two human cancer cell lines, including MDA-MB-231 and HCT116 cell lines, were purchased from the National Research Centre, Dokki, Cairo, Egypt. Briefly, 96-well plates were seeded with cells (5 × 10^3 cells/well) and left overnight. The compounds dissolved in DMSO were then applied to the cells following the serial dilution procedure in the range of 0–100 µM. The cells were then incubated for an additional 20 h. Subsequently, the cells were exposed to UV light for 20 min at a distance of 10 cm. To study the effects of the illumination, a control plate was created under the same circumstances but without illumination. The two plates were incubated for a further 20 h. After that, PBS was used to wash the cells and MTT solution (0.5 mg/ml) was added. To dissolve the generated formazan crystals, the solution was replaced with 100 µl of DMSO per well after 4 h of incubation. An ELISA reader operating at 492 nm was used to measure the absorbance after 15 min of plate shaking. By relating the absorbance of treated and negative control cells, the relative cell viability was calculated. GraphPad Prism software was used to calculate the half inhibitory concentration (IC50). Doxorubicin (0–100 μM) was utilized as a positive cytotoxicity control in the usual dark environment, while the vehicle (DMSO, 0.1%) was used as a negative control.

MDA-MB-231 cells = test: MTT cell viability assay, MDA-MB-231; format: cell-based; conditions: Homo sapiens; MDA-MB-231, dark conditions
Protocol: as §1

hyperchromicity (BSA [1])	kq (BSA [2]) [M⁻¹ s⁻¹]	n (binding site numbers) (BSA [2])	Kb (BSA [2]) [M⁻¹]	KSV (BSA [2]) [M⁻¹]	IC50 (HCT116 cells) [µM]	IC50 (MDA-MB-231 cells) [µM]	melting point [°C]	SMILES	hypochromism (CT-DNA)	kq (CT-DNA-EtBr) [M⁻¹ s⁻¹]	reduction in fluorescence intensity (CT-DNA-EtBr)	KSV (CT-DNA-EtBr) [M⁻¹]
~ 52.2%	9e+12	1.3	30	90000	72	91	252 to 256	N#CC(=Cc1cn(-c2ccccc2)nc1-c1cccs1)C(=O)Nc1nccs1 [Compound 3b, 2-Cyano-3-(1-phenyl-3-(thiophen-2-yl)-1H-pyrazol-4-yl)-N-(thiazol-2-yl)acrylamide]	~ 14%	2.9e+11	~ 33.3%	2900
~ 48.2%	9.9e+12	1.3	34	99000	82	64	250 to 252	N#CC(=Cc1cn(-c2ccccc2)nc1-c1cccnc1)C(=O)Nc1nccs1 [Compound 3c, 2-Cyano-3-(1-phenyl-3-(pyridin-3-yl)-1H-pyrazol-4-yl)-N-(thiazol-2-yl)acrylamide]	~ 40%	5.6e+11	~ 30.7%	5600
							255 to 257	Cc1ccc(-c2nn(-c3ccccc3)cc2C=C(C#N)C(=O)Nc2nccs2)cc1 [Compound 3d, 2-Cyano-3-(1-phenyl-3-(p-tolyl)-1H-pyrazol-4-yl)-N-(thiazol-2-yl)acrylamide]				
							270 to 272	N#CC(=Cc1cn(-c2ccccc2)nc1-c1ccc(Cl)cc1)C(=O)Nc1nccs1 [Compound 3f, 3-(3-(4-Chlorophenyl)-1-phenyl-1H-pyrazol-4-yl)-2-cyano-N-(thiazol-2-yl)acrylamide]				
					40	64.8		COc1cccc2c1C(=O)c1c(O)c3c(c(O)c1C2=O)C[C@@](O)(C(=O)CO)C[C@@H]3O[C@H]1C[C@H](N)[C@H](O)[C@H](C)O1 [doxorubicin, reference compound]				
